{"source": "patent US9850281B2", "about": "“Cladosporium peptides” (Circassia Limited, priority 2012, dated 2017)", "note": "Where no end group is shown, it is not given here. [ ]: non-standard residue; d: D form. Nle = CCCC[C@H](N)C(=O)O"}
{"system": "Peripheral blood mononuclear cells (PBMCs)", "assay": "Cytokine release assay (multiplex bead assay IL-10, IL-13, IFN-g) on PBMCs of mould allergic subjects", "assay_type": "cell-based, human", "details": "50 mould allergic subjects; summary of Tables 8-10", "method": "(§1) Polypeptides for use in this assay were manufactured at small scale (approximately 10 mg batch size, non-GMP). […] Polypeptides were added to wells in a volume of 100 μl containing polypeptides at a concentration of 200 μg/ml, such that subsequent addition of 100 μl of cells would create a final assay concentration of 100 μg/ml.\n(§2) Peripheral blood mononuclear cells (PBMCs) were isolated from heparinised blood by Ficoll density gradient centrifugation. A 100 μl aliquot of a 5×10^6 cell/ml PBMC suspension was then added to each well and the plates placed in a humidified 5% CO2 incubator at 37° C. for 5 days. Following stimulation, culture supernatants (100 μl) were harvested for testing by multiplex bead assay.\n(§3) Multiplex cytokine bead assays (IL-10, IL-13, Interferon gamma (IFN-g)) were performed on thawed culture supernatants according to the manufacturer's instructions. Single measurements were performed for each culture supernatant sample. After completion of the multiplex assay, individual cytokine levels were determined by interpolation from the standard curve generated in the assay. A positive result was taken as a cytokine release of greater than 50 pg/ml in one or more of the IL-13, IL-10 and IFN-g assays. The number of responders out of 50 mould allergic subjects tested was calculated for each polypeptide for the three cytokines."}
{"substance": "ANYTQTKTVSIRL [Cla29]", "cytokine response in the population (in words)": "showed responses in the population"}
{"substance": "GHHFKERGTGSLVIT [Cla26]", "cytokine response in the population (in words)": "showed responses in the population"}
{"substance": "AEVYQKLKALAKKTYGQ [Alt13A]", "cytokine response in the population (in words)": "top performing"}
{"substance": "GWGVMVSHRSGET [Alt14]", "cytokine response in the population (in words)": "top performing"}
{"substance": "GGYKAAVRPT-Nle-LE (GGYKAAVRPT[Nle]LE) [Cla35A]", "cytokine response in the population (in words)": "increased response compared to the polypeptide having the sequence of Cla35"}
{"substance": "GGYKAAVRPTMLE [Cla35]", "cytokine response in the population (in words)": "showed responses in the population"}
{"substance": "VAITYASRAQGAEK [Cla25A]", "cytokine response in the population (in words)": "showed responses in the population"}
{"substance": "GYTGKIKIA-Nle-DVASSE (GYTGKIKIA[Nle]DVASSE) [Alt15A]", "cytokine response in the population (in words)": "top performing"}
{"substance": "GWGV-Nle-VSHRSGET (GWGV[Nle]VSHRSGET) [Alt14A]", "cytokine response in the population (in words)": "top performing"}
{"substance": "AEVYQKLKSLTKK [Cla16]", "cytokine response in the population (in words)": "showed responses in the population"}
{"substance": "WSWKIGPAIATGNT [Alt28]", "cytokine response in the population (in words)": "top performing"}
{"substance": "GYTGKIKIAMDVASSE [Alt15]", "cytokine response in the population (in words)": "top performing"}
{"system": "Peripheral blood mononuclear cells (PBMCs)", "assay": "Cytokine release assay (multiplex bead assay IL-10, IL-13, IFN-g) on PBMCs of mould allergic subjects", "assay_type": "cell-based, human", "details": "cytokine release greater than 50 pg/ml in one or more of IL-13, IL-10 and IFN-g; 50 mould allergic subjects; polypeptide 100 μg/ml; 5 days", "method": "as §1, §2, §3", "units": {"% responders": "%"}}
{"substance": "KLWHSMIPMGRDAK [Alt24]", "% responders": 34}
{"substance": "ANYTQTKTVSIRL [Cla29]", "% responders": 48}
{"substance": "GHHFKERGTGSLVIT [Cla26]", "% responders": 44}
{"substance": "AEVYQKLKALAKKTYGQ [Alt13A]", "% responders": 86}
{"substance": "KLWHS-Nle-IP-Nle-GRDAK (KLWHS[Nle]IP[Nle]GRDAK) [Alt24A]", "% responders": 40}
{"substance": "GWGVMVSHRSGET [Alt14]", "% responders": 44}
{"substance": "GGYKAAVRPT-Nle-LE (GGYKAAVRPT[Nle]LE) [Cla35A]", "% responders": 48}
{"substance": "GGYKAAVRPTMLE [Cla35]", "% responders": 34}
{"substance": "VAITYASRAQGAEK [Cla25A]", "% responders": 44}
{"substance": "KLWHSMIP-Nle-GRDAK (KLWHSMIP[Nle]GRDAK) [Alt24C]", "% responders": 36}
{"substance": "GLHFRERKTGSLVIT [Alt21]", "% responders": 38}
{"substance": "GYTGKIKIA-Nle-DVASSE (GYTGKIKIA[Nle]DVASSE) [Alt15A]", "% responders": 42}
{"substance": "GWGV-Nle-VSHRSGET (GWGV[Nle]VSHRSGET) [Alt14A]", "% responders": 56}
{"substance": "LAITYNSRAEGAEK [Alt20]", "% responders": 38}
{"substance": "AEVYQKLKSLTKK [Cla16]", "% responders": 36}
{"substance": "NEWRDFARVNSISP [Alt23]", "% responders": 40}
{"substance": "WSWKIGPAIATGNT [Alt28]", "% responders": 52}
{"substance": "GYTGKIKIAMDVASSE [Alt15]", "% responders": 56}
{"system": "Peripheral blood mononuclear cells (PBMCs)", "assay": "Cytokine release assay (multiplex bead assay IL-10, IL-13, IFN-g) on PBMCs of mould allergic subjects", "assay_type": "cell-based, human", "details": "50 mould allergic subjects, polypeptide 100 μg/ml, 5 days", "units": {"% responders (IFN-g release greater than 100 pg/ml)": "%"}}
{"substance": "ANYTQTKTVSIRL [Cla29]", "% responders (IFN-g release greater than 100 pg/ml)": 28}
{"substance": "GHHFKERGTGSLVIT [Cla26]", "% responders (IFN-g release greater than 100 pg/ml)": 28}
{"substance": "GGYKAAVRPTMLE [Cla35]", "% responders (IFN-g release greater than 100 pg/ml)": 28}
{"substance": "VAITYASRAQGAEK [Cla25A]", "% responders (IFN-g release greater than 100 pg/ml)": 22}
{"substance": "AEVYQKLKSLTKK [Cla16]", "% responders (IFN-g release greater than 100 pg/ml)": 16}
